Experimental data from patent publication US20060052582A1, “Identification of inhibitors of mitosis” (priority 2002, published 2006).

Legend:
[1] = tested on: p70S6K; experiment: Activity of endogenous p70S6K immunoprecipitated from H4-II-E-C3 hepatoma cells; assay type: cell-based, rat; settings: for IC50: insulin-stimulated H4 cells, insulin plus increasing inhibitor concentrations for 30 minutes, read-out: IC50 for inhibition of p70S6K activity
Protocol: (§1) Endogenous Nek6 polypeptide was immunoprecipitated from lysates of rat H4-II-E-C3 hepatoma cells following prior treatment for varying times (min) with 100 nM insulin (FIG. 12B), or insulin plus increasing concentrations of either wortmannin (FIG. 12C) or rapamycin (FIG. 12D) for 30 minutes. Nek6 kinase activity was measured using GST p70S6K ΔCT104 (Thr252Ala) as substrate (see, text for details). The activity of endogenous p70S6K αI/II, immunoprecipitated from the same lysates, was measured using a synthetic peptide substrate. Kinase activities are expressed as either fold increase in baseline activity (as in FIG. 12B; open circles show Nek6 activity; filled squares show p70S6K activity) or as histograms depicting the percent activity remaining for Nek6 (filled bars) or p70S6K (open bars) (as in FIGS. 12C and 12D).
The regulation of endogenous Nek6 activity in vivo was examined. An affinity purified anti-Nek6 peptide antibody raised against a polypeptide comprising an amino terminal murine Nek6 peptide AGQPSHMPHGGSPN (SEQ ID NO:30) conjugated to KLH via a cysteine residue as described above, gave highly specific immunoblots and was capable of modest immunoprecipitation of the endogenous Nek6 polypeptide, although at very low efficiency. Thus far, useful antibodies reactive with endogenous Nek7 have not been obtained. Nek6 immunoreactivity was evident in several commonly used mammalian cell lines including COS7 cells (FIG. 12A). […] Moreover, Nek6 had been isolated as a candidate p70S6 Kinase-Thr412 kinase, and insulin regulation of endogenous p70S6 Kinase (also referred to as p70S6K) had previously been characterized in this cell line (see, Price et al., Proc. Natl. Acad. Sci. USA, 87: 7944-7948 (1990)). Insulin generated a rapid, fifteen-fold activation of endogenous p70S6Kinase in serum-deprived H4 cells; under these conditions, however, no change occurred in the basal activity of immunoprecipitated endogenous Nek6 (FIG. 12B). […] The specific activity of Nek6 in H4 cells is, however, sensitive to serum withdrawal and declines progressively by 80% over 48 hours (FIG. 12E). […]

[2] = tested on: Nek6; experiment: Nek6 kinase assay in vitro with p70S6K ΔCT104 as substrate; assay type: biochemical, human
Chain of Nek6 (Q9HC98 whole entry): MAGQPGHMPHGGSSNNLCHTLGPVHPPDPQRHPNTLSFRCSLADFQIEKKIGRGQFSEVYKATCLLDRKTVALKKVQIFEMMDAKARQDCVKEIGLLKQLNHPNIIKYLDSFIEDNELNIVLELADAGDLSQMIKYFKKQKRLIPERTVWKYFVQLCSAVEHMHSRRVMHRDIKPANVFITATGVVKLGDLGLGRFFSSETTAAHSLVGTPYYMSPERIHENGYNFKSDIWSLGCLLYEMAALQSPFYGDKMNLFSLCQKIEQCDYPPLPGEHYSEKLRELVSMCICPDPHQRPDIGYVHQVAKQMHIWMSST
Protocol: Transiently expressed FLAG Nek6 was incubated for 1 hour at 4° C. alone or with increasing quantities of either purified prokaryotic recombinant GST (lanes 6-8) or prokaryotic recombinant GST Nercc1 (732-979) (lanes 2-5). Nek6 activity was assayed using p70S6K ΔCT104 as substrate. Upper panel: mean±S.E.M. percent of control Nek6 activity. Lower panels: ^32P autoradiography, Coomassie stain of the GST Nercc1 (732-979) or GST proteins, and western blot of the FLAG Nek6 wild type.
Immunoprecipitates (IP) of recombinant Nek6 (using anti-FLAG or anti-myc antibodies) or endogenous Nek6 were washed three times in the extraction buffer containing 0.5 M LiCl, and twice in kinase buffer (50 mM MOPS pH 7.4, 10 mM MgCl2, 2 mM EGTA, 20 mM β-glycerophosphate). Kinase assays were performed in 30 μl kinase buffer containing 1.5 μg GST-p70S6K ΔCT104 (Thr252Ala) or MBP (0.2 mg/ml) and initiated by addition of [γ-^32P] ATP (5 μM final concentration at 4000 cpm/pmol). Reactions were incubated for 10 minutes at 30° C. and terminated by the addition of 4×SDS sample buffer. Kinase mixtures were resolved by SDS-PAGE, transferred to PVDF membrane, and Nek6 phosphotransferase activity determined by excising Coomassie stained bands corresponding to the substrate and measuring radioactive content by Cerenkov scintillation counting.

[3] = tested on: HeLa cells; experiment: Leptomycin B treatment, endogenous Nercc localization in HeLa cells; assay type: cell-based, human
Protocol: (§2) Cells grown on coverslips were rinsed with PBS, fixed in methanol at −20° C. for 15 min, rinsed twice with PBS and incubated for 30 min at room temperature with the appropriate dilution of primary antibody in PBS. To visualize endogenous Nercc, affinity purified anti-Nercc peptide antibodies (N1 and C1) were employed at 10 μg/ml. Microtubules were visualized with a α/β-tubulin specific antibody. Coverslips were washed with PBS, and incubated with labeled secondary antibodies from corresponding species in appropriate combination-fluorescein or rhodamine X-conjugated donkey anti-rabbit, Cy2 or rhodamine X-conjugated donkey anti-mouse (each at 1:450). Incubation was terminated with a rinse in PBS, and the coverslips were mounted on a microscope slide. For immunodetection blocking, Nercc1 C1- or N1-antibody was incubated for 30 min at 37° C. with a 15-fold molar excess of immunizing peptide. After centrifugation at 12,000× g for 10 min, the mixture was used for immunoblotting or immunocytochemistry, as indicated. To examine the effects of Leptomycin B treatment on Nercc localization, HeLa or BHK21 cells were grown to subconfluency on 25 mm round glass coverslips in DMEM supplemented with 10% fetal bovine serum and penicillin-streptomycin. BHK21 cells were transfected (Fugene, Roche Molecular Biochemicals) with the wild type FLAG Nercc; medium was replaced after 18 hours (h). […]

[4] = tested on: BHK cells; experiment: Leptomycin B treatment, Nercc localization in transfected BHK cells; assay type: cell-based, hamster
Protocol: as §2

[5] = tested on: Nek6; experiment: Activity of endogenous Nek6 immunoprecipitated from H4-II-E-C3 hepatoma cells; assay type: cell-based, rat; settings: serum-deprived H4 cells; 100 nM insulin
Protocol: as §1
Immunoprecipitates (IP) of recombinant Nek6 (using anti-FLAG or anti-myc antibodies) or endogenous Nek6 were washed three times in the extraction buffer containing 0.5 M LiCl, and twice in kinase buffer (50 mM MOPS pH 7.4, 10 mM MgCl2, 2 mM EGTA, 20 mM β-glycerophosphate). […] Kinase mixtures were resolved by SDS-PAGE, transferred to PVDF membrane, and Nek6 phosphotransferase activity determined by excising Coomassie stained bands corresponding to the substrate and measuring radioactive content by Cerenkov scintillation counting. […]

COC[C@H]1OC(=O)c2coc3c2[C@@]1(C)C1=C(C3=O)[C@@H]2CCC(=O)[C@@]2(C)C[C@H]1OC(C)=O [wortmannin]
IC50 [1]: ~30 nM

GST Nercc1 (732-979): fusion protein of GST linked to Nercc amino acids 732-979 of SEQ ID NO:2
mode of inhibition of Nek6 catalytic activity [2]: noncompetitive
effect on enzymatic activity of preactivated wild type Nek6 ([2]; concentrations far below those of p70S6K ΔCT104 substrate): substantial inhibition

CCC(=C/[C@H](C)C/C=C/C(C)=C/[C@@H](C)C(=O)[C@@H](C)[C@H](O)[C@@H](C)C/C(C)=C/C(=O)O)/C=C/[C@@H]1OC(=O)C=C[C@@H]1C [Leptomycin B]
response of endogenous Nercc localization [3]: lack of response
endogenous RanBP1 fluorescence in the nucleus ([4]; 20 nM, 30 minutes incubation): increased dramatically
localization of wild type Nercc ([4]; 2, 20 and 200 nM, 30 minutes to 24 hours): remained cytoplasmic

CO[C@H]1C[C@@H]2CC[C@@H](C)[C@@](O)(O2)C(=O)C(=O)N2CCCC[C@H]2C(=O)O[C@H]([C@H](C)C[C@@H]2CC[C@@H](O)[C@H](OC)C2)CC(=O)[C@H](C)/C=C(\C)[C@@H](O)[C@@H](OC)C(=O)[C@H](C)C[C@H](C)/C=C/C=C/C=C/1C [rapamycin]
IC50 [1]: ~2 nM

Insulin: insulin, used at 100 nM to stimulate H4 cells
change in basal activity of immunoprecipitated endogenous Nek6 [5]: no change
activation of endogenous p70S6Kinase ([1]; serum-deprived H4 cells, 100 nM insulin): fifteen-fold
